Measurements reported in PubChem BioAssay (NCI).
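Compound exposure: 48 hours, 5 concentrations, 96-well plates. The concentration for full growth arrest is given as TGI.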

What was measured:
Experiment in all cases: NCI tumour cell line growth inhibition, 48 h
786-0 renal = system: 786-0 renal
SN12C renal = system: SN12C renal
MDA-MB-435 = system: MDA-MB-435
KM12 colon = system: KM12 colon
CCRF-CEM leukemia = system: CCRF-CEM leukemia
SK-MEL-28 melanoma = system: SK-MEL-28 melanoma
MDA-MB-231 breast = system: MDA-MB-231 breast
OVCAR-3 ovarian = system: OVCAR-3 ovarian
SR leukemia = system: SR leukemia
HOP-92 NSCLC = system: HOP-92 NSCLC
MALME-3M melanoma = system: MALME-3M melanoma
HS 578T breast = system: HS 578T breast
SF-268 CNS = system: SF-268 CNS
NCI-H23 lung = system: NCI-H23 lung
SK-MEL-2 melanoma = system: SK-MEL-2 melanoma
MCF7 breast = system: MCF7 breast
HCT-116 colon = system: HCT-116 colon
HOP-62 NSCLC = system: HOP-62 NSCLC
SF-295 CNS = system: SF-295 CNS
M14 melanoma = system: M14 melanoma
T-47D breast = system: T-47D breast
RPMI-8226 leukemia = system: RPMI-8226 leukemia
A498 renal = system: A498 renal
EKVX NSCLC = system: EKVX NSCLC
PC-3 prostate = system: PC-3 prostate
COLO 205 colon = system: COLO 205 colon
SNB-19 CNS = system: SNB-19 CNS
NCI-H522 lung = system: NCI-H522 lung
OVCAR-4 ovarian = system: OVCAR-4 ovarian
HCT-15 colon = system: HCT-15 colon
NCI-H226 lung = system: NCI-H226 lung
UACC-257 melanoma = system: UACC-257 melanoma
K-562 leukemia = system: K-562 leukemia
UACC-62 melanoma = system: UACC-62 melanoma
UO-31 renal = system: UO-31 renal
HL-60(TB) leukemia = system: HL-60(TB) leukemia
BT-549 breast = system: BT-549 breast
HT29 colon = system: HT29 colon
DU-145 prostate = system: DU-145 prostate
OVCAR-8 ovarian = system: OVCAR-8 ovarian
NCI/ADR-RES ovarian = system: NCI/ADR-RES ovarian
A549 NSCLC = system: A549 NSCLC
SK-OV-3 ovarian = system: SK-OV-3 ovarian
MDA-N = system: MDA-N
OVCAR-5 ovarian = system: OVCAR-5 ovarian
IGROV1 ovarian = system: IGROV1 ovarian
MOLT-4 leukemia = system: MOLT-4 leukemia
TK-10 renal = system: TK-10 renal
ACHN renal = system: ACHN renal
SK-MEL-5 melanoma = system: SK-MEL-5 melanoma
U251 CNS = system: U251 CNS
LOX IMVI melanoma = system: LOX IMVI melanoma
SF-539 CNS = system: SF-539 CNS
SW-620 colon = system: SW-620 colon
CAKI-1 renal = system: CAKI-1 renal
RXF 393 renal = system: RXF 393 renal
SNB-75 CNS = system: SNB-75 CNS

CCOc1ccc(C(c2c(O)c3ccccc3oc2=O)c2c(O)c3ccccc3oc2=O)cc1
TGI (786-0 renal): > 100 µM
TGI (SN12C renal): > 100 µM
TGI (MDA-MB-435): > 100 µM
TGI (KM12 colon): > 100 µM
TGI (CCRF-CEM leukemia): > 100 µM
TGI (SK-MEL-28 melanoma): > 100 µM
TGI (MDA-MB-231 breast): > 100 µM
TGI (OVCAR-3 ovarian): > 100 µM
TGI (SR leukemia): 58.7 µM
TGI (HOP-92 NSCLC): 65.1 µM
TGI (MALME-3M melanoma): > 100 µM
TGI (HS 578T breast): > 100 µM
TGI (SF-268 CNS): > 100 µM
TGI (NCI-H23 lung): > 100 µM
TGI (SK-MEL-2 melanoma): 59.1 µM
TGI (MCF7 breast): > 100 µM
TGI (HCT-116 colon): > 100 µM
TGI (HOP-62 NSCLC): > 100 µM
TGI (SF-295 CNS): > 100 µM
TGI (M14 melanoma): > 100 µM
TGI (T-47D breast): > 100 µM
TGI (RPMI-8226 leukemia): 93.8 µM
TGI (A498 renal): > 100 µM
TGI (EKVX NSCLC): > 100 µM
TGI (PC-3 prostate): 84.3 µM
TGI (COLO 205 colon): > 100 µM
TGI (SNB-19 CNS): > 100 µM
TGI (NCI-H522 lung): > 100 µM
TGI (OVCAR-4 ovarian): > 100 µM
TGI (HCT-15 colon): > 100 µM
TGI (NCI-H226 lung): > 100 µM
TGI (UACC-257 melanoma): > 100 µM
TGI (K-562 leukemia): > 100 µM
TGI (UACC-62 melanoma): > 100 µM
TGI (UO-31 renal): > 100 µM
TGI (HL-60(TB) leukemia): 50.2 µM
TGI (BT-549 breast): > 100 µM
TGI (HT29 colon): > 100 µM
TGI (DU-145 prostate): > 100 µM
TGI (OVCAR-8 ovarian): > 100 µM
TGI (NCI/ADR-RES ovarian): > 100 µM
TGI (A549 NSCLC): > 100 µM
TGI (SK-OV-3 ovarian): > 100 µM
TGI (MDA-N): > 100 µM
TGI (OVCAR-5 ovarian): > 100 µM
TGI (IGROV1 ovarian): > 100 µM
TGI (MOLT-4 leukemia): > 100 µM
TGI (TK-10 renal): > 100 µM
TGI (ACHN renal): > 100 µM
TGI (SK-MEL-5 melanoma): > 100 µM
TGI (U251 CNS): > 100 µM
TGI (LOX IMVI melanoma): > 100 µM
TGI (SF-539 CNS): > 100 µM
TGI (SW-620 colon): > 100 µM
TGI (CAKI-1 renal): > 100 µM

CCC(C)N1CN(c2ccccc2)C2(CCN(CCCC(=O)c3ccc(F)cc3)CC2)C1=O (stereo unspecified)
TGI (786-0 renal): > 100 µM
TGI (SN12C renal): 14.3 µM
TGI (MDA-MB-435): 27.5 µM
TGI (CCRF-CEM leukemia): > 100 µM
TGI (SK-MEL-28 melanoma): 32.1 µM
TGI (MDA-MB-231 breast): 23.1 µM
TGI (OVCAR-3 ovarian): 24.8 µM
TGI (SR leukemia): 23.3 µM
TGI (MALME-3M melanoma): 27.8 µM
TGI (HS 578T breast): 36.4 µM
TGI (SF-268 CNS): 29 µM
TGI (NCI-H23 lung): 14.1 µM
TGI (SK-MEL-2 melanoma): 28.7 µM
TGI (MCF7 breast): 11.5 µM
TGI (HCT-116 colon): 3.16 µM
TGI (HOP-62 NSCLC): 4.51 µM
TGI (SF-295 CNS): 15.8 µM
TGI (M14 melanoma): 27.4 µM
TGI (T-47D breast): 15.9 µM
TGI (RPMI-8226 leukemia): 31.5 µM
TGI (A498 renal): 16.8 µM
TGI (EKVX NSCLC): 36.4 µM
TGI (PC-3 prostate): 23.1 µM
TGI (COLO 205 colon): 0.348 µM
TGI (NCI-H522 lung): 20.6 µM
TGI (OVCAR-4 ovarian): 16.2 µM
TGI (HCT-15 colon): 17.9 µM
TGI (RXF 393 renal): 30 µM
TGI (K-562 leukemia): > 100 µM
TGI (UACC-62 melanoma): 32.9 µM
TGI (UO-31 renal): 15.6 µM
TGI (HL-60(TB) leukemia): 46 µM
TGI (BT-549 breast): 26 µM
TGI (HT29 colon): 2.35 µM
TGI (DU-145 prostate): 13.4 µM
TGI (NCI/ADR-RES ovarian): > 100 µM
TGI (SNB-75 CNS): 38.3 µM
TGI (A549 NSCLC): 20.4 µM
TGI (SK-OV-3 ovarian): 21.5 µM
TGI (MDA-N): 25.5 µM
TGI (OVCAR-5 ovarian): 8.12 µM
TGI (IGROV1 ovarian): 18.7 µM
TGI (MOLT-4 leukemia): 23.2 µM
TGI (TK-10 renal): 16.5 µM
TGI (ACHN renal): 9.73 µM
TGI (SK-MEL-5 melanoma): 9.61 µM
TGI (U251 CNS): 16.9 µM
TGI (LOX IMVI melanoma): 10.8 µM
TGI (SF-539 CNS): 21 µM
TGI (SW-620 colon): 16 µM
TGI (CAKI-1 renal): 26.8 µM
